pIC50: −log10 of the molar value.

The test system of assay [1] is 5-LO. As to the kind of experiment: Test b) in vitro heparinised human blood challenged with A23187, LTB4 radioimmunoassay (5-LO). The format is cell-based. As to conditions: A23187 challenge. The method, then: b) An in vitro assay system involving incubating a test compound with heparinised human blood, prior to challenge with the calcium ionophore A23187 and then indirectly measuring the inhibitory effects on 5-LO by assaying the amount of LTB4 using the specific radioimmunoassay described by Carey and Forder (F. Carey and R. A. Forder, Brit. J. Pharmacol. 1985, 84, 34P) which involves the use of a protein-LTB4 conjugate produced using the procedure of Young et alia (Prostaglandins, 1983, 26(4), 605-613). The effects of a test compound on the enzyme cyclooxygenase (which is involved in the alternative metabolic pathway for arachidonic acid and gives rise to prostaglandins, thromboxanes and related metabolites) may be measured at the same time using the specific radioimmunoassay for thromboxane B2 (TxB2) described by Carey and Forder (see above). This test provides an indication of the effects of a test compound against 5-LO and also cyclooxygenase in the presence of blood cells and proteins. It permits the selectivity of the inhibitory effect on 5-LO or cyclooxygenase to be assessed.

For assay [2], the system named is 5-LO. The assay is described as follows: Test c) ex vivo assay: administration of test compound, blood collection, A23187 challenge, radioimmunoassay of LTB4. The format is in vivo. As to conditions: oral. As to the method: c) An ex vivo assay system, which is a variation of test b) above, involving administration of a test compound (usually orally as the suspension produced when a solution of the test compound in dimethylsulphoxide is added to carboxymethylcellulose), blood collection, heparinisation, challenge with A23187 and radioimmunoassay of LTB4 and TxB2. This test provides an indication of the bioavailability of a test compound as an inhibitor of 5-LO or cyclooxygenase.

For assay [3], the system named is 5-LO. The assay is described as follows: Test g) liberation of LTB4 induced by zymosan within an air pouch in male rats. The conditions noted are these: oral, rat zymosan air pouch, 3 hours. It counts as in vivo. As to the method: g) An in vivo system involving measuring the effects of a test compound administered orally against the liberation of LTB4 induced by zymosan within an air pouch generated within the subcutaneous tissue of the back of male rats. The rats are anaesthetised and air pouches are formed by the injection of sterile air (20 ml). A further injection of air (10 ml) is similarly given after 3 days. At 6 days after the initial air injection the test compound is administered (usually orally as the suspension produced when a solution of the test compound in dimethylsulphoxide is added to hydroxypropylmethylcellulose), followed by the intrapouch injection of zymosan (1 ml of a 1% suspension in physiological saline). After 3 hours the rats are killed, the air pouches are lavaged with physiological saline, and the specific radioimmunoassay described above is used to assay LTB4 in the washings. This test provides an indication of inhibitory effects against 5-LO in an inflammatory milieu.

As to `COC1(c2ccc3c(c2)OC(c2ccc4ccccc4c2)O3)CCOCC1` (stereo not drawn) [5-(4-methoxytetrahydropyran-4-yl)-2-(naphth-2-yl)benzo-1,3-dioxole], the negative-log IC50 (pIC50) with 5-LO [1] is 6.52. Besides, the ED50 in the assay with 5-LO [2] was 5 mg/kg; in the assay with 5-LO [3], below 3 mg/kg.

Broadly, the pIC50 is the IC50 on a negative log10 scale, so that one unit is a factor of ten. Broadly, the ED50 is the midpoint of the dose-response relation.

The record behind these values is patent US5126365A, “Bicyclic derivatives” (Imperial Chemical Industries PLC, priority 1989, dated 1992).
